Source: patent publication US6780838B2, “Compounds for treating fungal pathologies of the oral cavity” (priority 2001, dated 2004)
Where no end group is shown, it is not given here.

Tests used:
C. albicans [1] = assay: C. albicans colony forming units (viability) after incubation with peptide; format: cell-based; conditions: for relative potency in reducing C. albicans viability: 10^−4 M melanocortin peptides (FIG. 2 legend: all 10^−6 M); for reducing C. albicans CFU at higher concentrations: up to 10^−4 M, results not shown in the figures
Experimental: C. albicans (clinical isolate) was obtained from the collection of the Department of Microbiology, Ospedale Maggiore di Milano and maintained on Sabouraud's agar slants and periodically transferred to Sabouraud's agar plates and incubated for 48 hours at 28° C. To prepare a stationary growth phase yeast, a colony was taken from the agar plate and transferred into 30 ml Sabouraud-dextrose broth and incubated for 72 hours at 32° C. Cells were centrifuged and suspended in Hank's balanced salt solution (“HBSS”) to the desired concentration. Viability, determined by the exclusion of 0.01% methylene blue, remained >98%.
C. albicans (1×10^6/ml in HBSS) was incubated in the presence of absence or (1-13) (SEQ ID NO: […]) or (11-13) (SEQ ID NO: 1) at concentrations in the range of 10^−15 M to 10^−6 M for 2 hours at 37° C. Cells were then washed in cold distilled water and diluted with HBSS to a concentration of 100 organisms/ml. One-ml aliquots were dispensed on blood agar plates and incubated for 48 hours at 37° C. Organism viability was estimated from the number of colonies formed.
In subsequent experiments using familiar procedures we compared activity of α-MSH (4-10) (SEQ ID NO: 2), (6-13) (SEQ ID NO: 3), (11-13) (SEQ ID NO: 1), ACTH (SEQ ID NO: 5) (1-39), (18-39) (SEQ ID NO: 6) and fluconazole, the latter an established antifungal agent. Melanocortin peptides and fluconazole were tested in concentrations of 10^−6 M to 10^−4 M. There were at least six replicates for each concentration of peptide. […]

C. albicans [2] = assay: as above; format: cell-based; conditions: FIG. 1; peptide 10^−12 M to 10^−4 M; 2 hours at 37° C.; p<0.01 vs. control
[3] = versus α-MSH; cited from earlier work
C. albicans [4] = assay: C. albicans killing by human neutrophils; format: cell-based; conditions: FIG. 4; 10^−12 M to 10^−4 M; 2 hours at 37° C.; p<0.01
Experimental: Venous blood (20 ml) from health volunteers was anticoagulated with heparin. Neutrophils were isolated using dextran sedimentation and Ficoll-Hypaque (Sigma Chemical Co., St. Louis, […]., USA) centrifugation. Erythrocytes were lysed via hypotonic shock. Neutrophils represented at least 97% of the cell suspension. Cell viability, estimated by trypan blue exclusion, was >98%. Neutrophils were suspended to a final concentration in HBSS. C. albicans (1×^6) were opsonized with human AB serum in a shaking water bath for 30 minutes at 37° C. Organisms were then incubated with neutrophils in medium or in medium with α-MSH (1-13) (SEQ ID NO: 4) or α-MSH(11-13) (SEQ ID NO: 1) in concentrations of 10^31 15 M to 10^31 4 M in a shaking water bath for 2 hours at 37° C. After incubation, the culture tubes were placed on ice stop growth and extracellular organisms were washed twice with centrifugation at 1000×g at 4° C. A 2.5% sodium desoxycholoate solution was added to obtain a suspension of […]. Two 1/100 serial dilutions in HBSS were made to obtain a final suspension of 100 cells/ml. Aliquots of 1 ml were dispensed on blood agar plates and incubated for 48 hours at 37° C. Colony forming units (CFUs) were counted at the end of the incubation period. Experiments were run in triplicate and repeated using blood from 5 different donors.

[5] = system: cAMP content of C. albicans; assay: cAMP content of permeabilized C. albicans (EIA); format: cell-based; conditions: FIG. 5; 10^−6 M, 3 minutes; increase of same order of magnitude as equimolar forskolin
Experimental: C. albicans ([…]), permeabilized with toluene/ethanol, were incubated at 37° C. with continuous shaking in the presence of 10^31 6 M α-MSH(1-13) (SEQ ID NO: 4), (11-13) (SEQ ID NO: 1), forskolin, an agent known to increase intracellular cAMP, or in medium alone. The reaction was stopped after 3 minutes by the addition of ice cold ethanol, cAMP was measured in duplicate using a commercial enzyme immunoassay (EIA) kit (Amersham, United Kingdom) after extraction via the liquid-phase method according to manufacturer's instructions. The effect of forskolin (10^−6 M) on C. albicans colony formation was determined using the same procedure as for α-MSH peptides.

[6] = amino acids added to C-terminal α-MSH (11-13); cited from earlier work
[7] = stereochemistry analogs, Hiltz et al. 1991; cited from earlier work

VPK-Ac-CC-Ac-KPV (Ac-CKPV; also: disulfide-linked dimer through Cys)
effectiveness against microbes compared with α-MSH (11-13) (C. albicans [1]): at least as effective
C. albicans colony forming units (CFU) (C. albicans [2]): inhibited C. albicans colony formation

[Nle^4,D-Phe^7]-α-MSH
potency in reducing fever relative to the parent peptide [3]: approximately 10 times

HFRWGKPV (Ac-HFRWGKPV-NH2) [α-MSH (6-13)]
relative potency in reducing C. albicans viability (C. albicans [1]; FIG. 2): most effective

SYSMEHFRWGKPV [α-MSH (1-13)]
relative potency in reducing C. albicans viability (C. albicans [1]; FIG. 2): most effective
killing of C. albicans by human neutrophils (C. albicans [4]): enhanced the killing
cAMP content in the yeast [5]: enhanced
C. albicans colony forming units (CFU) (C. albicans [2]): greatly reduced

9-13 sequence: α-MSH 9-13 sequence (WGKPV; ends and bridges not checked; UniProt P01189 146-150, looked up, fragment)
antipyretic potency relative to the 11-13 sequence [6]: almost devoid of activity

Ac-[D-K^11]-α-MSH 11-13-NH2
anti-inflammatory potency/activity relative to the L-form tripeptide α-MSH 11-13 [7]: same general potency

α-MSH (4-10): core α-MSH sequence (4-10), SEQ ID NO: 2
inhibition of CFU (C. albicans [1]; FIG. 2, 10^−4 M (FIG. 2 legend: 10^−6 M), p<0.01 vs. control): approximately 50%

10-13 sequence: α-MSH 10-13, glycine added to the 11-13 sequence (GKPV; ends and bridges not checked; UniProt P01189 147-150, looked up, fragment)
antipyretic potency relative to the 11-13 sequence [6]: slightly decreased the potency

KPV (Ac-Lys-Pro-Val-NH2) [α-MSH (11-13)]
relative potency in reducing C. albicans viability (C. albicans [1]; FIG. 2): most effective
killing of C. albicans by human neutrophils (C. albicans [4]): enhanced the killing
cAMP content in the yeast [5]: enhanced
C. albicans colony forming units (CFU) (C. albicans [2]): greatly reduced

ACTH fragment (18-39): ACTH fragment (18-39) (CLIP) (RPVLVYPAGEDDEASEAFPLEF)
relative potency in reducing C. albicans viability (C. albicans [1]; FIG. 2): did not reduce C. albicans viability
reducing C. albicans CFU at higher concentrations (C. albicans [1]): ineffective

8-13 sequence: α-MSH 8-13 sequence (RWGKPV; ends and bridges not checked; UniProt P01189 145-150, looked up, fragment)
antipyretic potency relative to the 11-13 sequence [6]: greater than that of the 11-13 sequence

ACTH (1-39): adrenocortitrophic hormone (1-39) (SYSMEHFRWGKPVGKKRRPVLVYPAGEDDEASEAFPLEF)
relative potency in reducing C. albicans viability (C. albicans [1]; FIG. 2): did not reduce C. albicans viability
reducing C. albicans CFU at higher concentrations (C. albicans [1]): ineffective
